Assay [1] concerns TSPO. To be noted: ratio of low affinity site to high affinity site; racemates.
Protocol: (§1) Membrane protein was prepared from human platelets obtained from 4 donor whole blood samples. […] Platelet pellets were homogenized in 10 ml buffer 1 (0.32 mM sucrose, 5 mM Tris base, 1 mM MgCl2, pH 7.4, 4° C.). The homogenates were centrifuged at 48,000×g for 15 minutes at 4° C. in a Beckman J2-MC centrifuge. The supernatant was removed and pellets were re-suspended in at least 10 ml buffer 2 (50 mM Tris base, 1 mM MgCl2, pH 7.4, 4° C.) and washed by centrifugation at 48,000×g for 15 mM at 4° C. in buffer 2. Membranes were suspended in 2 ml buffer 2 and the protein concentration was determined using Protein Assay Kit II (Bio Rad cat #500-0002). Aliquots were stored at −80° C. until use.
(§2) Aliquots of membrane suspension were thawed and homogenized with assay buffer 3 (50 mM Tris base, 140 mM NaCl, 1.5 mM MgCl2, 5 mM KCl, 1.5 mM CaCl2, pH 7.4, 37° C.). […] GE180 was diluted at 11 serial dilutions ranging from 100 μM to 1 nM. Total and nonspecific binding assessments were also performed. 160 μL of platelet membranes diluted to 30 μg/mL were added to the assay plate for a final volume of 200 μL/well. Assay plates were incubated at 37° C. for at least one hour with termination of incubation by filtering onto GF/B glass fiber plates (Perkin Elmer; cat #6005177) pre-soaked in 0.1% PEI in saline for 60 minutes. Assay plates were rinsed five to six times with ice cold buffer 4 (50 mM Tris Base, 1.4 mM MgCl2, pH 7.4, 4° C.) on a Perkin Elmer Filtermate 196. Plates were then dried, the bottoms sealed, and 50 μL of MicroScint 20 (Perkin Elmer cat #6013621) was added to each well. After sealing the tops, the plates were allowed to equilibrate for at least 30 minutes and the captured radioactivity was counted on a Perkin Elmer TopCount NTX.
For assay [2], the system named is TSPO. To be noted: ratio of low affinity site to high affinity site; resolved enantiomers.
Protocol: (§3) Membrane protein was prepared from human platelets obtained from 4 donor whole blood samples. Two of these donor samples were previously identified as having high affinity and 2 identified as having low affinity based on PBR28 binding affinity. Platelet pellets were homogenized in 10 ml buffer 1 (0.32 mM sucrose, 5 mM Tris base, 1 mM MgCl2, pH 7.4, 4° C.). The homogenates were centrifuged at 48,000×g for 15 minutes at 4° C. in a Beckman J2-MC centrifuge. The supernatant was removed and pellets were re-suspended in at least 10 ml buffer 2 (50 mM Tris base, 1 mM MgCl2, pH 7.4, 4° C.) and washed by centrifugation at 48,000×g for 15 mM at 4° C. in buffer 2. Membranes were suspended in 2 ml buffer 2 and the protein concentration was determined using Protein Assay Kit II (Bio Rad cat #500-0002). Aliquots were stored at −80° C. until use.
(§4) Aliquots of membrane suspension were thawed and homogenized with assay buffer 3 (50 mM Tris base, 140 mM NaCl, 1.5 mM MgCl2, 5 mM KCl, 1.5 mM CaCl2, pH 7.4, 37° C.). […] Compound 1 was diluted on a Beckman Biomek 2000 workstation at 11 serial dilutions ranging from 1 μM to 0.01 nM. GE180 was diluted at 11 serial dilutions ranging from 100 μM to 1 nM. Total and nonspecific binding assessments were also performed. 160 μL of platelet membranes diluted to 30 μg/mL were added to the assay plate for a final volume of 200 μL/well. Assay plates were incubated at 37° C. for at least one hour with termination of incubation by filtering onto GF/B glass fiber plates (Perkin Elmer; cat #6005177) pre-soaked in 0.1% PEI in saline for 60 minutes. Assay plates were rinsed five to six times with ice cold buffer 4 (50 mM Tris Base, 1.4 mM MgCl2, pH 7.4, 4° C.) on a Perkin Elmer Filtermate 196. Plates were then dried, the bottoms sealed, and 50 μL of MicroScint 20 (Perkin Elmer cat #6013621) was added to each well. After sealing the tops, the plates were allowed to equilibrate for at least 30 minutes and the captured radioactivity was counted on a Perkin Elmer TopCount NTX.
Assay [3] deals with T1, TSPO (Homo sapiens, UniProt P30536). Kind of assay: biochemical.
Protocol: as §1, §2
Assay [4] has as its target T2, TSPO (Homo sapiens, UniProt P30536, T147A). Kind of assay: biochemical.
Protocol: as §1, §2
The target in assay [5] is T1, TSPO. Kind of assay: biochemical. The source holds these as a separate data set.
Protocol: as §3, §4
For assay [6], the target named is T2, TSPO. The assay is described as follows: biochemical. The source holds these as a separate data set.
Protocol: as §3, §4
Assay [7] relates to TSPO. To be noted: in vitro assay; LABs compared with HABs; cited from earlier work.
For assay [8], the system named is TSPO. To be noted: compared with [11C]PBR28; cited from earlier work.

Where two headings read alike, the source gives them in different places.

T1 sequence (P30536 2-169): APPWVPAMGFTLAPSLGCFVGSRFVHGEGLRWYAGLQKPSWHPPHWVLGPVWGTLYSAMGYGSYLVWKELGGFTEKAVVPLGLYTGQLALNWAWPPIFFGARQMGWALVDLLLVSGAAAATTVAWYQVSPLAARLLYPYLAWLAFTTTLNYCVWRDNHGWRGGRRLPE
T2 sequence (P30536 2-169 T147A): as the sequence (P30536 2-169) above, with T146A counted along it

In the case of `CCN(CC)C(=O)[C@H]1CCCc2c1c1c(OC)cccc1n2CCF` (stereo in doubt) [GE180, 9-(2-Fluoro-ethyl)-5-methoxy-2,3,4,9-tetrahydro-1H-carbazole-4-carboxylic acid diethylamide], the “Low:High affinity ratio” value with TSPO [1] is 15.44; in the assay with TSPO [2], 3.
On to `CCN(CC)C(=O)C1Sc2ccccc2-c2c1c1c(OC)cccc1n2CCF` (racemic) [Compound 1, N,N-diethyl-11-(2-fluoroethyl)-7-methoxy-6,11-dihydrothiochromeno[4,3-b]indole-6-carboxamide], for which the “Low:High affinity ratio” value in the assay with TSPO [1] is listed as 9.87. Also, the Ki is 0.51 nM at TSPO [3] and 0.05 nM at TSPO [4].
`CCN(CC)C(=O)[C@@H]1Sc2ccccc2-c2c1c1ccc(OC)cc1n2CCF` [Compound 1 E1]: in the assay with TSPO [2], the “Low:High affinity ratio” value was determined as 2. Also, the Ki on TSPO [5] was found to be 31 nM; on TSPO [6], 15 nM.
`COc1ccccc1CN(C(C)=O)c1cnccc1Oc1ccccc1` [PBR28, N-(2-methoxybenzyl)-N-(4-phenoxypyridin-3-yl)acetamide]: the “Low:High affinity ratio” value in the assay with TSPO [2] was determined as 28. The Ki at TSPO [5] came out at 117 nM; on TSPO [6] it was 4 nM.
Consider `COc1ccccc1CN(C(C)=O)c1cnccc1Oc1ccccc1` [[^3H]PBR28], for which the “lower TSPO affinity in LABs than in HABs” value in the assay with TSPO [7] is “more than 10 fold”.
In the case of `CCN(CC)C(=O)[C@H]1Sc2ccccc2-c2c1c1ccc(OC)cc1n2CC[18F]` [Compound 1 E2], the “Low:High affinity ratio” value in the assay on TSPO [2] amounted to 1. Also, the results for the inhibitory constant (Ki) at TSPO [5] and at TSPO [6] were 4 nM and 3 nM, respectively.
`CCC(C)N(C)C(=O)c1cc2ccccc2c(-c2ccccc2Cl)n1` (stereo not shown) [[^11C]PK11195]: the “in vivo specific binding in monkey brain, lower than that reported for [11C]PBR28” value in the assay with TSPO [8] is ~80 fold.

(Values after patent US20160222024A1, “S-ENANTIOMER OF TETRACYCLIC INDOLE DERIVATIVE AS PBR LIGANDS” (priority 2013, published 2016).)
